How the values were obtained:
GLP1R [1] = target: T1, GLP1R (Homo sapiens, UniProt P43220); assay: GLP1R cAMP HTRF assay, HEK293/GLP-1R/CRE/Luc (HEK293T cells); format: cell-based
Method in brief: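 cAMP accumulation via HTRF after 30 min, 37 °C exposure of 1000 receptor-expressing cells/well to compound (0.5% DMSO final) in IBMX (500 μM)/0.1% BSA DPBS.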

GLP1R [2] = target: T1, GLP1R; assay: GLP1R cAMP assay, CHO cells stably expressing human GLP-1R; format: cell-based
Description: GLP-1R-mediated agonist activity was determined with a cell-based functional assay utilizing an HTRF (Homogeneous Time-Resolved Fluorescence) cAMP detection kit (cAMP Dynamic 2 Assay Kit; CisBio cat #62AM4PEC) that measures cAMP levels in the cell. The method is a competitive immunoassay between native cAMP produced by the cells and exogenous cAMP labeled with the dye d2. The tracer binding is visualized by a mAb anti-cAMP labeled with Cryptate. The specific signal (i.e., energy transfer) is inversely proportional to the concentration of cAMP in either standard or experimental sample.
Varying concentrations of each compound to be tested (in DMSO) were diluted in DMSO to obtain 200× compound working solution first and then 50 nl compounds were added to a white 384-well assay plate (Greiner 784075) with ECHO. The final DMSO concentration was 0.5%. The compound concentration range may be adjusted at any time.
Cells were removed from cryopreservation, re-suspended in 5 mL of Dulbecco's Phosphate Buffered Saline (DPBS-Sigma Cat # D8537) and centrifuged at 900 g for 5 min at 22° C. The cell pellet was then re-suspended in 1 mL of assay buffer [DPBS with 500 μM IBMX (Sigma #15879) and 0.1% BSA (Sigma # A1933). IBMX and BSA were freshly added on the day of assay]. A 10 μL sample of the cell suspension was counted on an Invitrogen Countess II to determine cell viability and cell count per mL. The remaining cell suspension was then adjusted with assay buffer to deliver 1000 viable cells per well using a Matrix Combi Multidrop reagent dispenser. 10 μL cell suspensions were added to each well of the assay plate which already contains compound. The plate was sealed and incubated at 37° C. with 5% CO2 for 30 minutes.
Following the 30 minute incubation, 5 μL of labeled d2 cAMP and 5 μL of anti-cAMP antibody (both diluted 1:20 in cell lysis buffer; as described in the manufacturer's assay protocol) were added to each well of the assay plate. The plates w ere then incubated at room temperature and after 60 minutes, changes in the HTRF signal were read with an Envision multi-label plate reader using excitation of 330 nm and emissions of 615 and 665 nm. Raw data were converted to nM cAMP by interpolation from a cAMP standard curve (as described in the manufacturer's assay protocol) and the percent effect was determined relative to a saturating concentration of the full agonist GLP-17-37 (10 nM) included on each plate. EC50 determinations were made from agonist dose-response curves analyzed with a curve fitting program using a 4-parameter logistic dose response equation. […]

[3] = mean ± spread, read-out: HEK293T cells EC50
[4] = CHO cells, mean ± spread, read-out: CHO cells EC50

T1 sequence (P43220 24-463): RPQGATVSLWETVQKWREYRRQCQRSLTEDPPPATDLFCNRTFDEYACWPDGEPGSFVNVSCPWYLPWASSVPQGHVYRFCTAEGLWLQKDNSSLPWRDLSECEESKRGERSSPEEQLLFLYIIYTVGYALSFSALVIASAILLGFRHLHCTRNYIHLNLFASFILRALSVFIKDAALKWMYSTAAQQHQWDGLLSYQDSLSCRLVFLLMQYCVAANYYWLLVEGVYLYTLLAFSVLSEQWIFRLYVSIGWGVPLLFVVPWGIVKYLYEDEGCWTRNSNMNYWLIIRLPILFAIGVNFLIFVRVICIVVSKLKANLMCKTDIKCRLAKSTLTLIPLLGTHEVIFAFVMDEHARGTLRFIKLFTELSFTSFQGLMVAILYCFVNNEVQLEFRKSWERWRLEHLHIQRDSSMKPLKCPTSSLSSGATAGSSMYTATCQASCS

Row | Structure (SMILES) | EC50 (GLP1R [1]; [3]) [nM] | EC50 (GLP1R [2]; [4]) [nM] | EC50 (GLP1R [1]; read-out: EC50) [nM] | EC50 (GLP1R [2]; CHO cells stably expressing GLP-1R, read-out: CHO cAMP stable EC50) [nM]
1 | N#Cc1ccc(COc2nc(C3=CCN(Cc4nc5ccc(C(=O)O)cc5n4C[C@@H]4CCO4)CC3)ccc2F)c(F)c1 [drawing 57] | 0.517 | 6.05 |  | 
2 | O=C(O)c1ccc2nc(CN3CC=C(c4cccc(OCc5ccc(Cl)cc5F)c4)CC3)n(C[C@@H]3CCO3)c2c1 [drawing 67] | 3.94 | 42.6 ± 11.5 |  | 
3 | N#Cc1ccc(COc2nc(C3CCN(Cc4nc5ccc(C(=O)O)cc5n4C[C@@H]4CCO4)CC3)ccc2F)c(F)c1 [reference compound] | 5.65 | 463 |  | 
4 | N#Cc1ccc(COc2cncc(C3=CCN(Cc4nc5ccc(C(=O)O)cc5n4C[C@@H]4CCO4)CC3)n2)c(F)c1 [drawing 63] | 9.85 | 260 ± 38 |  | 
5 | N#Cc1ccc(COc2cccc(N3CCC(Cc4nc5ccc(C(=O)O)nc5n4C[C@@H]4CCO4)CC3)n2)c(F)c1 [Compound 227, (S)-2-((l-(6-((4-cyano-2-fluorobenzyl)oxy)pyridin-2-yl)piperidin-4-yl)methyl)-3-(oxetan-2-ylmethyl)-3H-imidazo[4,5-b]pyridine-5-carboxylic acid] |  |  | ≤ 15 | ≤ 150
6 | N#Cc1ccc(COc2cncc(C3CCN(Cc4nc5ccc(C(=O)O)cc5n4C[C@@H]4CCO4)CC3)n2)c(F)c1 [drawing 62, reference compound] | 15.9 | 924 ± 230 |  | 
7 | O=C(O)c1ccc2nc(CN3CCC(c4cccc(OCc5ccc(Cl)cc5F)c4)CC3)n(C[C@@H]3CCO3)c2c1 [drawing 66, reference compound] | 8.58 | 105 ± 32.7 |  | 
8 | O=C(O)c1cc2c(cn1)nc(CN1CC=C(c3cccc(OCc4ccc(Cl)cc4F)n3)CC1)n2C[C@@H]1CCO1 [Compound 170, (S)-2-((G-((4-chloro-2-fluorobenzyl)oxy)-3′,6′-dihydro-[2H′-bipyridin]-1 (2′H)-yl)methyl)-1-(oxetan-2-ylmethyl)-1H-imidazo[4,5-c]pyridine-6-carboxylic acid] |  |  | ≤ 15 | 
9 | O=C(O)c1ccc2nc(CN3CC=C(c4cccc(NC5CCOc6cc(Cl)ccc65)n4)CC3)n(C[C@@H]3CCO3)c2c1 (stereo partly drawn) [Compound 61, 2-((4-(6-(7-chlorochroman-4-ylamino)pyridin-2-yl)-5,6-dihydropyridin-1(2H)-yl)methyl)-1-((S)-oxetan-2-ylmethyl)-1H-benzo[d]imidazole-6-carboxylic acid] |  |  | ≤ 1000 | 
10 | O=C(O)c1ccc2nc(CN3CCN(c4ccc(=O)n(CCc5ccc(Cl)cc5F)n4)CC3)n(C[C@@H]3CCO3)c2c1 [Compound 6, (S)-2-((4-(1-(4-chloro-2-fluorophenethyl)-6-oxo-1,6-dihydropyridazin-3-yl)piperazin-1-yl)methyl)-1-(oxetan-2-ylmethyl)-1 h-benzo[d]imidazole-6-carboxylic add] |  |  | > 1000 | 
11 | O=C(O)c1ccc2nc(CN3CC=C(c4cccc(CCc5ccc(Cl)cc5F)n4)CC3)n(C[C@@H]3CCO3)c2c1 [Compound 113, (S)-2-((6-(4-chloro-2-fluorophenethyl)-3′,6′-dihydro-[2,4′-bipyridin]-1′(2′H)-yl)methyl)-1-(oxetan-2-ylmethyl)-1H-benzo[d]imidazole-6-carboxylic acid] |  |  | ≤ 150 | 
12 | N#Cc1ccc(COc2ccc(F)c(C3=CCN(Cc4nc5ccc(C(=O)O)cc5n4C[C@@H]4CCO4)CC3)c2)c(F)c1 [Compound 206, (S)-2-((4-(5-((4-cyano-2-fluorobenzyl)oxy)-2-fluorophenyl)-3,6-dihydropyridin-1(2H)-yl)methyl)-1-(oxetan-2-ylmethyl)-1H-benzo[d]imidazole-6-carboxylic add] |  |  | ≤ 15 | 
13 | O=C(O)c1ccc2nc(CN3CC=C(c4cccc(OCc5ccc(-n6nccn6)cc5)n4)CC3)n(C[C@@H]3CCO3)c2c1 [Compound 243, (S)-2-((6-((4-(2H-1,2,3-triazol-2-yl)benzyl)oxy)-3′,6′-dihydro-[2,4′-bipyridin]-1′(2′H)-yl)methyl)-1-(oxetan-2-ylmethyl)-1H-benzo[d]imidazole-6-carboxylic add] |  |  | ≤ 150 | 
14 | Cc1cc2nc(CN3CC=C(c4cccc(OCc5ccc(Cl)cc5)n4)CC3)n(C[C@@H]3CCO3)c2cc1C(=O)O [Compound 111, (S)-2-((4-(6-(4-chlorobenzyloxy)pyridin-2-yl)-5,6-dihydropyridin-1(2H)-yl)methyl)-5-methyl-1-(oxetan-2-ylmethyl)-1H-benzo[d]imidazole-6-carboxylic acid] |  |  | ≤ 15 | 

The next lines start with the values.

Row | EC50 (GLP1R [1]; [3]) [nM] | EC50 (GLP1R [2]; [4]) [nM] | EC50 (GLP1R [1]; read-out: EC50) [nM] | EC50 (GLP1R [2]; CHO cells stably expressing GLP-1R, read-out: CHO cAMP stable EC50) [nM] | Structure (SMILES)
15 | 2.94 | 136 ± 32.6 |  |  | O=C(O)c1ccc2nc(CN3CC=C(c4cncc(OCc5ccc(Cl)cc5F)n4)CC3)n(C[C@@H]3CCO3)c2c1 [drawing 61]
16 | 0.3 | 3.5 |  |  | N#Cc1ccc(COc2cccc(C3CCN(Cc4nc5ccc(C(=O)O)nc5n4C[C@@H]4CCO4)CC3)n2)c(F)c1 [reference compound]
17 | 0.168 | 3.86 |  |  | N#Cc1ccc(COc2cccc(C3=CCN(Cc4nc5ccc(C(=O)O)nc5n4C[C@@H]4CCO4)CC3)n2)c(F)c1 [drawing 69]
18 |  |  | ≤ 15 |  | N#Cc1ccc(COc2nccc(C3=CCN(Cc4nc5ccc(C(=O)O)cc5n4C[C@@H]4CCO4)CC3)n2)c(F)c1 [Compound 177, (S)-2-((4-(2-((4-cyano-2-fluorobenzyl)oxy)pyrimidin-4-yl)-5,6-dihydropyridin-1(2H)-yl)methyl)-1-(oxetan-2-ylmethyl)-1H-benzo[d]imidazole-6-carboxylic add]
19 |  |  | ≤ 15 |  | N#Cc1ccc(CNc2nc(C3=CCN(Cc4nc5ccc(C(=O)O)cc5n4C[C@@H]4CCO4)CC3)c(F)cc2F)c(F)c1 [Compound 217, (S)-2-((6-((4-cyano-2-fluorobenzyl)amino)-3,5-difluoro-3′,6′-dihydro-[2,4′-bipyridin]-1′(2′H)-yl)methyl)-1-(oxetan-2-ylmethyl)-1H-benzo[d]imidazole-6-carboxylic add]
20 |  |  | > 1000 |  | O=C(O)c1ccc2nc(CN3CCC(N4Cc5ccccc5N(CCc5ccc(Cl)cc5F)C4=O)CC3)n(C[C@@H]3CCO3)c2c1 [Compound 53, (S)-2-((4-(1-(4-chloro-2-fluorophenethyl)-2-oxo-1,4-dihydroquinazolin-3(2H)-yl)piperidin-1-yl)methyl)-1-(oxetan-2-ylmethyl)-1H-benzo[d]imidazole-6-carboxylic acid]
21 |  |  | ≤ 15 |  | O=C(O)c1ccc2nc(CN3CC=C(c4nc(OCc5ccc(F)cc5F)c(F)cc4F)CC3)n(C[C@@H]3CCO3)c2c1 [Compound 216, (S)-2-((4-(6-(2,4-difluorobenzyloxy)-3,5-difluoropyridin-2-yl)-5,6-dihydropyridin-1(2H)-yl)methyl)-1-(oxetan-2-ylmethyl)-1H-benzo[d]imidazole-6-carboxylic acid]
22 |  |  | > 1000 |  | O=C(O)c1ccc2nc(CN3CCN(c4ccc5c(n4)N(Cc4ccc(Cl)cc4F)CCO5)CC3)n(C[C@@H]3CCO3)c2c1 [Compound 4, (S)-2-((4-(4-(4-chloro-2-fluorobenzyl)-3H-dihydro-2H-pyrido[3,2-b][1H]oxazin-6-yl)piperazin-1-yl)methyl)-1-(oxetan-2-ylmethyl)-1H-benzo[d]imidazole-6-carboxylic acid]
23 |  |  | ≤ 150 |  | CCOc1ccc(COc2cccc(C3=CCN(Cc4nc5ccc(C(=O)O)cc5n4C[C@@H]4CCO4)CC3)n2)cc1OC [Compound 166, (S)-2((6-((4-ethoxy-3-methoxybenzyl)oxy)-3′,6′-dihydro-[2,4′-bipyridin]-1′(2′H)-yl)methyl)-1-(oxetan-2-ylmethyl)-1H-benzo[d]imidazole-6-carboxylic acid]

From patent US10844049B2, “GLP-1R agonists and uses thereof” (QILU REGOR THERAPEUTICS INC., priority 2018, dated 2020)
